According to patent US8506926B2, “[18F]-furanosylpurine derivatives and uses thereof” (priority 2003, dated 2013):

Experiments:
[1] = Blood clearance after intravenous injection; type: in vivo, athymic nude mice; conditions: blood samples 1-120 minutes after i.v. injection
Description: Activity injected into each mouse was measured in a dose calibrator (Capintec). […] Activity in each blood sample was measured by a gamma counter, standardized for injected dose, and % injected dose per gram was calculated. Mean % injected dose per gram was plotted against time to obtain the blood clearance curve for each compound. Animals were anesthetized with Nembutal (40 mg/kg) and sacrificed at 2 hours post-injection. All organs including tumor were separated and weighed. Radioactivity in each organ was measured using a gamma counter. For each mouse, radioactivity uptake was expressed as % injected dose per gram, and as ratio of organ to blood uptake.

[2] = Micro-PET imaging studies; type: in vivo; conditions: for micro-PET image findings: 30 minutes, 1 hour and 2 hours post-injection; for wash out of activity with time (micro-PET): up to 2 hours post-injection
Description: PET imaging was performed using a Micro-PET scanner (Concorde Microsystems, Inc.), with 120 transaxial planes and spatial resolution of 2.0 mm, at 30 minutes, 1 hour and 2 hours post-injection. Images were reconstructed using Ordered Subset Expectation Maximization (OSEM) algorithm.

[3] = mouse, in vivo
[4] = cited from earlier work
[5] = test system: human colon tumor xenografts; conditions: Carson; Takahashi; cited from earlier work
[6] = molecular target: T1, herpes simplex virus thymidine kinase (HSV-tk) (Human herpesvirus 1, UniProt P0DTH5); test: Tumor uptake in HSV-tk transduced versus wild type tumors on the same animal; type: in vivo; conditions: tumor uptake in transduced and wild type cells comparable
T1 construct: expressed in transfected cells
T1 sequence (P0DTH5 whole entry): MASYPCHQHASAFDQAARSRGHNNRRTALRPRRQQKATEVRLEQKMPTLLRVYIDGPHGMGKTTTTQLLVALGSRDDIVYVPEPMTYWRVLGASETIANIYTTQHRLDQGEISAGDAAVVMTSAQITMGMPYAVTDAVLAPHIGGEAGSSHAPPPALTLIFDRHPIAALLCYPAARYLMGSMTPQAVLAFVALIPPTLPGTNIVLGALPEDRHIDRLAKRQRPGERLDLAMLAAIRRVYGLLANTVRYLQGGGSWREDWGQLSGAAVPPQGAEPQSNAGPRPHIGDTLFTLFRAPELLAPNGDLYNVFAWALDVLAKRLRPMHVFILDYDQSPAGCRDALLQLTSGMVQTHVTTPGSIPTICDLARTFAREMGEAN

Row | SMILES | blood clearance pattern [1] | micro-PET image findings [2] | wash out of activity with time (micro-PET) [2] | tissue of highest uptake [3] | further results
1 | Nc1ncnc2c1ncn2[C@@H]1O[C@H](CO)[C@H]([18F])[C@H]1O [[^18F]-FXA, 3′-deoxy-3′-[^18F]-fluoro-9-β-D-xylofuranosyladenine] | clear rapidly from the blood initially, then slow down after 20 minutes post-injection | activity is in the heart | did not wash out in 2 hours post-injection | heart | tumor/blood ratio [3]: less than 1
2 | Nc1nc(=O)n([C@@H]2O[C@H](CO)[C@@H](O)[C@@H]2F)cc1[125I] [[^125I] labeled FIAC, [^125I]-2′-fluoro-5-iodo-1-β-D-arabinofuranosylcytosine] |  |  |  |  | deiodination in vivo [4]: extensive deiodination in vivo
3 | Nc1nc(Cl)nc2c1ncn2[C@@H]1O[C@H](CO)[C@@H](O)[C@@H]1F [2′-deoxy-2′-fluoro-2-chloro-9-β-D-arabinofuranosyladenine] |  |  |  |  | activity against human colon tumor xenografts [5]: active
4 | Nc1ncnc2c1ncn2[C@@H]1O[C@H](CO)[C@@H](O)[C@@H]1[18F] [[^18F]-FAA, 2′-deoxy-2′-[^18F]-fluoro-9-β-D-arabinofuranosyladenine] | clear rapidly from the blood initially, then slow down after 20 minutes post-injection | high uptake in spleen | wash out of activity with time was minimal | spleen | substrate for HSV-tk [6]: not a substrate for HSV-tk; Uptake in kidney [3]: 3.5%; Uptake in liver [3]: 2.4%; tumor uptake compared to the background activity [3]: more than 3 fold; uptake in tumors compared to blood [3]: 3.3 fold
